Common to all, as to experiment: pTyr-Var library bacterial peptide display kinase screen (enrichment scores)
In one assay the test system is EPHB2 kinase domain. The assay is classed as biochemical, human. The conditions noted are these: sheet EPHB2.
In a further assay the test system is EPHB1 kinase domain. The assay is classed as biochemical, human. The conditions noted are these: for Screen (variant relative to reference peptide, measured in the pTyr-Var library screen): sheet "EPHB1", variant seq vs reference seq, bacterial peptide display enrichment; for Screen: sheet EPHB1, effect of the variant peptide relative to its reference peptide in the pTyr-Var library screen (enrichment scores).

Another assay addresses c-Src kinase domain (Homo sapiens, UniProt P12931). The assay is classed as biochemical. The conditions noted are these: sheet "Src".
In the next assay the test system is Fer kinase domain. The assay is classed as biochemical, mouse. The settings on record: sheet "Fer".
In a further assay the target is T1, c-Abl kinase domain (Mus musculus, UniProt P00520).
T1 sequence (P00520 242-493 limits assumed): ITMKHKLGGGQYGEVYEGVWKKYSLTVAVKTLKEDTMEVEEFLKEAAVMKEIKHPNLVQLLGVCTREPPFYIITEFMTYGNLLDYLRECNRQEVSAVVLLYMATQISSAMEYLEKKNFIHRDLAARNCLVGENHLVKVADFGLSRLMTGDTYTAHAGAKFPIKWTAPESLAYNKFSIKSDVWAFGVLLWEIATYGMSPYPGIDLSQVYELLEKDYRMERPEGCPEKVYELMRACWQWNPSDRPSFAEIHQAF
The assay is classed as biochemical.

Setting [1] is: effect of the variant relative to its reference peptide in the pTyr-Var library screen.
The mark [2] stands for this setting: effect of the variant peptide relative to its reference peptide in the pTyr-Var library screen.
Where [3] appears, read: value of the variant peptide against its reference peptide in the pTyr-Var library screen with Fer.
The mark [4] stands for this setting: effect of variant peptide relative to its reference peptide in the pTyr-Var library screen (enrichment scores).
Where [5] appears, read: variant peptide versus its reference peptide in the pTyr-Var library screen.
The mark [6] stands for this setting: sheet "Abl", effect of variant peptide relative to its reference peptide in pTyr-Var library screen (enrichment).

DASENYFVMDS [TMEM240_Y77_T80M] displayed a Screen in the assay with EPHB2 kinase domain (setting [1]) of 2.274. In addition, in the assay on EPHB1 kinase domain, the “Screen (variant relative to reference peptide, measured in the pTyr-Var library screen)” value was determined as 2.244.

With DSFATYFRWVL [H2BW1_Y84_R87W], the results for the Screen at c-Src kinase domain (setting [2]), with Fer kinase domain (setting [3]) and in the assay with EPHB1 kinase domain were 2.683, 2.515 and 1.664, respectively.

For the sequence DSNLIYSQIWS [FCRL3_Y662_P660L], the Screen at c-Src kinase domain (setting [2]) is listed as -0.2629; in the assay on EPHB2 kinase domain (setting [4]), -0.3687; with Fer kinase domain (setting [3]), -0.3219; in the assay with EPHB1 kinase domain, -0.4048.

For the sequence EAVSIYQFFGQ [CBLC_Y402_H405Y_YF], the Screen is reported as -0.1267 on c-Src kinase domain (setting [2]), 1.796 in the assay with EPHB2 kinase domain (setting [4]), -0.2521 with Fer kinase domain (setting [3]) and 2.283 in the assay on EPHB1 kinase domain.

With FADGVYLALEE [DUOX2_Y70_Q71L_YF], the values for the Screen on c-Src kinase domain (setting [2]), in the assay on EPHB2 kinase domain (setting [4]) and with EPHB1 kinase domain were -0.6157, -0.6876 and -0.7119, respectively.

Consider FAELMYTGFWH [ASS1_Y322_V321M], for which the Screen at c-Src kinase domain (setting [2]) is listed as -0.1313; with EPHB2 kinase domain (setting [4]) it was 0.8429; in the assay with Fer kinase domain (setting [3]), -0.4066; in the assay with EPHB1 kinase domain it was 0.6121.

With FFPANYVAPMT [GRAP2_Y324_L319F], the Screen in the assay on EPHB2 kinase domain (setting [4]) is reported as 0.7095; in the assay on EPHB1 kinase domain, 0.4698.

For HGEAFYSEVKA [PAK5_Y182_P187A_YF], the Screen at c-Src kinase domain (setting [5]) is on record as 0.7945; in the assay with Fer kinase domain (setting [3]) it was -0.1663; in the assay on EPHB1 kinase domain it was -0.6457.

With ITNLLYHVVSW [GBA_Y412_G416S], the Screen at c-Src kinase domain (setting [2]) was -0.28; with EPHB2 kinase domain (setting [4]), 0.7379; in the assay on EPHB1 kinase domain, 0.5526.

As for LASLIYNFILF [AQP6_Y231_V234I], the Screen on c-Src kinase domain (setting [2]) is 0.7887; in the assay with EPHB2 kinase domain (setting [4]), -1.512; in the assay with Fer kinase domain (setting [3]), 0.3008; with EPHB1 kinase domain, 0.3462.

Turning to LGQRIYQFIRS [DYRK1B_Y271_Q275R_YF], the Screen on c-Src kinase domain (setting [2]) was -0.5682; in the assay on EPHB2 kinase domain (setting [4]) it was -1.048; in the assay with Fer kinase domain (setting [3]), -0.8955; in the assay with EPHB1 kinase domain it was -0.4041.

As for LIFVSYDDWDF [GRIN2A_Y281_S278F_YF], the Screen on c-Src kinase domain (setting [2]) was 0.7047; with EPHB2 kinase domain (setting [4]) it was 1.496; in the assay with Fer kinase domain (setting [3]) it was -0.259; in the assay on EPHB1 kinase domain, 0.6915.

Regarding LLDGEYFTLQI [TP53_Y327_P322L], the Screen at c-Src kinase domain (setting [5]) is on record as 0.8932; in the assay on Fer kinase domain (variant peptide relative to its reference peptide, pTyr-Var library screen enrichment), 0.2479. The “Screen (variant relative to reference peptide, measured in the pTyr-Var library screen)” value with EPHB1 kinase domain is reported as 0.245.

With LPEENYQVLCF [ARHGAP1_Y365_R369C], the Screen was found to be 2.107 on c-Src kinase domain (setting [2]), 1.989 in the assay with EPHB2 kinase domain (setting [4]), 1.701 in the assay with Fer kinase domain (setting [3]) and 1.32 in the assay with EPHB1 kinase domain.

Consider LTERDYSFVTT [ACTG2_Y199_G198D], for which the Screen with EPHB2 kinase domain (setting [4]) is listed as 1.327; in the assay with Fer kinase domain (setting [3]), 1.738; with EPHB1 kinase domain it was 1.497.

For the sequence NPIGLYSAEIL [LDB3_Y202_T206I], the values for the Screen with EPHB2 kinase domain (setting [4]), in the assay with Fer kinase domain (setting [3]) and with EPHB1 kinase domain were 0.5797, 1.652 and 0.7886, respectively.

Take NTILLYHIMAW [GPR143_Y157_S152N]: the Screen stood at 0.3631 with EPHB2 kinase domain (setting [4]); 0.6057 at c-Abl kinase domain (fig5-data2, sheet "Abl", Screen for the variant/reference peptide pair, pTyr-Var library); 0.2317 with EPHB1 kinase domain.

With PTKNDYWAMPA [WWOX_Y287_L291P], the Screen with EPHB2 kinase domain (setting [1]) is reported as 3.139; on c-Abl kinase domain (setting [6]), -1.562. Further, the “Screen (variant relative to reference peptide, measured in the pTyr-Var library screen)” value with EPHB1 kinase domain is 3.488.

For QNTGDYCDLFG [PTPN11_Y62_Y63C_YF], the figures for the Screen at c-Src kinase domain (setting [5]), in the assay with EPHB2 kinase domain (setting [4]) and in the assay with EPHB1 kinase domain were -0.9656, -1.274 and -1.22, respectively.

On to RRIFSYRGHLW [VHL_Y112_H110Y_YF], for which the results for the Screen on c-Src kinase domain (setting [5]) and at c-Abl kinase domain (setting [6]) were -2.013 and -4.34, respectively. The “Screen (variant relative to reference peptide, measured in the pTyr-Var library screen)” value in the assay with EPHB1 kinase domain is -1.652.

For the sequence SCPANYFAFKI [FAM3D_Y65_P60S], the figures for the Screen at c-Src kinase domain (setting [2]), with EPHB2 kinase domain (setting [4]) and with EPHB1 kinase domain were -0.7557, -0.7683 and -0.6297, respectively.

Values taken from publication PMC10065799, “High-throughput profiling of sequence recognition by tyrosine kinases and SH2 domains using bacterial peptide display” (eLife, 2023).
